Molecular target: T1, human liver FBPase (Homo sapiens, UniProt P09467)
T1 construct: made in house; host or cells: E. coli
T1 sequence (P09467 2-338 limits assumed): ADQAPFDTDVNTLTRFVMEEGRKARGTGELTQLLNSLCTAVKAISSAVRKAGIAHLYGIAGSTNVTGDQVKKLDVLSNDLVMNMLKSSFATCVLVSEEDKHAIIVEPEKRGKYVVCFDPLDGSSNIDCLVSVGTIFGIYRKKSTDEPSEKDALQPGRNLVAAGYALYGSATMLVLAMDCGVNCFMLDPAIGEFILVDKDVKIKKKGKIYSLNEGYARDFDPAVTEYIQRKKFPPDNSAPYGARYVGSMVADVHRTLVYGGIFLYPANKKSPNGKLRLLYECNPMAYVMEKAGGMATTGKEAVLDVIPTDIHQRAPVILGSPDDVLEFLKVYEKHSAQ
Assay: FBPase assay (malachite green phosphate release)
Assay type: biochemical
Settings: recombinant human liver FBPase, 50 μM fructose-1,6-bisphosphate
Procedure, shortened: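 Recombinant human liver FBPase (E. coli-expressed, heat-treated, purified) reacted with 50 μM fructose-1,6-bisphosphate in pH 7.2 HEPES, 2 mM MgCl2, 1% DMSO, 50 min at room temperature. Released phosphate quantified with malachite green/ammonium molybdate reagent at 620 nm.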

Row | IC50 [µM] | SMILES
1 | 1.63 | COCCc1sc(S(=O)(=O)NC(=O)Nc2cc(SC)cc(-c3noc(C)n3)n2)cc1C [Compound 117, 5-(2-methoxyethyl)-4-methyl-N-{[6-(5-methyl-1,2,4-oxadiazol-3-yl)-4-(methylthio)pyridin-2-yl]carbamoyl}thiophene-2-sulfonamide]
2 | 2.3 | COCCc1sc(S(=O)(=O)NC(=O)Nc2cc(OC)cc(C(=O)OC)n2)cc1C [Compound 118, Methyl-6-[({[5-(2-methoxyethyl)-4-methyl-2-thienyl]sulfonyl}carbamoyl)amino]-4-(methoxy)pyridine-2-carboxylate]
3 | 4.8 | COCCc1sc(S(=O)(=O)NC(=O)Nc2cc(OC)cc(C(N)=O)n2)cc1C [Compound 119, 6-[({[5-(2-Methoxyethyl)-4-methyl-2-thienyl]sulfonyl}carbamoyl)amino]-4-(methoxy)pyridine-2-carboxamide]
4 | 0.831 | Cc1cc(C(F)(F)F)cc(NC(=O)NS(=O)(=O)c2csc(C)c2)n1 [Compound 120, 5-Methyl-N-{[6-methyl-4-(trifluoromethyl)pyridin-2-yl]carbamoyl}thiophene-3-sulfonamide]
5 | 1.17 | Cc1cc(C(F)(F)F)cc(NC(=O)NS(=O)(=O)c2ccc(C)s2)n1 [Compound 121, 5-Methyl-N-{[6-methyl-4-(trifluoromethyl)pyridin-2-yl]carbamoyl}thiophene-2-sulfonamide]
6 | 0.73 | Cc1csc(S(=O)(=O)NC(=O)Nc2cc(C(F)(F)F)cc(C)n2)c1 [Compound 122, 4-Methyl-N-{[6-methyl-4-(trifluoromethyl)pyridin-2-yl]carbamoyl}thiophene-2-sulfonamide]
